The test system of data set [1] is Rattus norvegicus. Kind of data set: AUC (0 to last) in rat assessed as (S)-8-(2-amino-6-((R)-1-(5-chlorobiphenyl-2-yl)-2,2,2-trifluoroethoxy)pyrimidin-4-yl)-2,8-diazaspiro[4.5]decane-3-carboxylic acid level at 25 mg/kg, po. The format is ADME, organism-based. On the set-up: dose 25 mg/kg, route oral, time 0 - last. The note with it: in vivo.
Data set [2] has as its system Rattus norvegicus. The experiment in a line: Clearance in rat at 1 mg/kg, iv relative to hepatic blood flow. The format is ADME, organism-based. The note with it: in vivo.
In data set [3] the test system is Mus musculus. The experiment in a line: In vivo inhibition of TPH1 in mouse assessed as reduction in 5-HT level in intestinal mucosa at 10 mg/kg, po administered daily as single dose relative to control. The data set is classed as functional.
The subject of data set [4] is Canis familiaris. Kind of data set: Cmax in beagle dog assessed as (S)-8-(2-amino-6-((R)-1-(5-chlorobiphenyl-2-yl)-2,2,2-trifluoroethoxy)pyrimidin-4-yl)-2,8-diazaspiro[4.5]decane-3-carboxylic acid level at 25 mg/kg, po. The format is ADME, organism-based, Canis lupus familiaris. On the set-up: dose 25 mg/kg, route oral. The note with it: in vivo.
Data set [5] relates to Rattus norvegicus. Kind of data set: Cmax in rat assessed as (S)-8-(2-amino-6-((R)-1-(5-chlorobiphenyl-2-yl)-2,2,2-trifluoroethoxy)pyrimidin-4-yl)-2,8-diazaspiro[4.5]decane-3-carboxylic acid level at 25 mg/kg, po. The format is ADME, organism-based. On the set-up: dose 25 mg/kg, route oral. The note with it: in vivo.
Data set [6] deals with Canis familiaris. The experiment in a line: AUC (0 to last) in beagle dog assessed as (S)-8-(2-amino-6-((R)-1-(5-chlorobiphenyl-2-yl)-2,2,2-trifluoroethoxy)pyrimidin-4-yl)-2,8-diazaspiro[4.5]decane-3-carboxylic acid level at 25 mg/kg, po. The data set is classed as ADME, organism-based, Canis lupus familiaris. On the set-up: dose 25 mg/kg, time 0 - last, route oral. The note with it: in vivo.

Data set [7] has as its system Canis familiaris. The experiment in a line: Clearance in beagle dog at 1 mg/kg, iv relative to hepatic blood flow. The format is ADME, organism-based, Canis lupus familiaris. The note with it: in vivo.
In data set [8] the test system is Canis familiaris. The experiment in a line: Half life in beagle dog assessed as (S)-8-(2-amino-6-((R)-1-(5-chlorobiphenyl-2-yl)-2,2,2-trifluoroethoxy)pyrimidin-4-yl)-2,8-diazaspiro[4.5]decane-3-carboxylic acid level at 1 mg/kg, iv. The note with it: in vivo. The format is ADME, organism-based, Canis lupus familiaris.
A short description of data set [9]: Clearance in rat at 1 mg/kg, iv. The data set is classed as ADME, organism-based. The note with it: in vivo.
A short description of data set [10]: Volume of distribution at steady state in rat at 1 mg/kg, iv. The note with it: in vivo, read-out: Vdss. The format is ADME, organism-based.
In data set [11] the test system is Canis familiaris. The experiment in a line: Volume of distribution at steady state in beagle dog at 1 mg/kg, iv. The format is ADME, organism-based, Canis lupus familiaris. The note with it: in vivo.
Data set [12] relates to Mus musculus. Kind of data set: Prodrug activation in mouse assessed as (S)-8-(2-amino-6-((R)-1-(5-chlorobiphenyl-2-yl)-2,2,2-trifluoroethoxy)pyrimidin-4-yl)-2,8-diazaspiro[4.5]decane-3-carboxylic acid formation at 10 to 50 mg/kg, po administered as single dose. The data set is classed as organism-based. The note with it: in vivo.
Data set [13] relates to Mus musculus. Kind of data set: In vivo inhibition of TPH1 in mouse assessed as reduction in 5-HT level in intestinal mucosa at 50 mg/kg, po administered daily as single dose relative to control. The format is functional.
In data set [14] the test system is Canis familiaris. Kind of data set: Half life in beagle dog at 1 mg/kg, iv. The data set is classed as ADME, organism-based, Canis lupus familiaris. The note with it: in vivo.
Data set [15] in a line: Half life in rat at 1 mg/kg, iv. The format is ADME, organism-based. The note with it: in vivo.
The nature of data set [16]: Prodrug activation in rat hepatocytes assessed as ester hydrolysis by measuring 8-(2-amino-6-((R)-1-(4-chloro-2-(3-methyl-1H-pyrazol-1-yl)phenyl)-2,2,2-trifluoroethoxy)pyrimidin-4-yl)-2,8-diazaspiro[4.5]decane-3-carboxylic acid level by LC/UV/MS method. The data set is classed as cell-based, Hepatocyte.
Data set [17] is described as follows: Drug metabolism in rat hepatocytes assessed as 8-(2-amino-6-((R)-1-(2-(3-carboxy-1H-pyrazol-1-yl)-4-chlorophenyl)-2,2,2-trifluoroethoxy)pyrimidin-4-yl)-2,8-diazaspiro[4.5]decane-3-carboxylic acid formation by LC/UV/MS method. The format is ADME, cell-based, Hepatocyte.
Data set [18] is described as follows: Drug metabolism in rat hepatocytes assessed as 8-(2-amino-6-((R)-1-(4-chloro-2-(3-(sulfooxymethyl)-1H-pyrazol-1-yl)phenyl)-2,2,2-trifluoroethoxy)pyrimidin-4-yl)-2,8-diazaspiro[4.5]decane-3-carboxylic acid formation by LC/UV/MS method. The data set is classed as ADME, cell-based, Hepatocyte.
Data set [19] can be described thus: Drug metabolism in rat hepatocytes assessed as hydroxylation by measuring 8-(2-amino-6-((R)-1-(4-chloro-2-(3-(hydroxymethyl)-1H-pyrazol-1-yl)phenyl)-2,2,2-trifluoroethoxy)pyrimidin-4-yl)-2,8-diazaspiro[4.5]decane-3-carboxylic acid level by LC/UV/MS method. The data set is classed as ADME, cell-based, Hepatocyte.
Data set [20] relates to Rattus norvegicus. The experiment in a line: Cmax in rat assessed as (S)-8-(2-amino-6-((R)-1-(3',4'-dimethyl-3-(3-methyl-1H-pyrazol-1-yl)biphenyl-4-yl)-2,2,2-trifluoroethoxy)pyrimidin-4-yl)-2,8-diazaspiro[4.5]decane-3-carboxylic acid level at 25 mg/kg, po. On the set-up: dose 25 mg/kg, route oral. The format is ADME, organism-based. The note with it: in vivo.
The subject of data set [21] is Rattus norvegicus. The experiment in a line: Half life in rat assessed as (S)-8-(2-amino-6-((R)-1-(3',4'-dimethyl-3-(3-methyl-1H-pyrazol-1-yl)biphenyl-4-yl)-2,2,2-trifluoroethoxy)pyrimidin-4-yl)-2,8-diazaspiro[4.5]decane-3-carboxylic acid level at 1 mg/kg, iv. The note with it: in vivo. The format is ADME, organism-based.
Data set [22] has as its system Rattus norvegicus. The experiment in a line: AUC (0 to last) in rat assessed as (S)-8-(2-amino-6-((R)-1-(3',4'-dimethyl-3-(3-methyl-1H-pyrazol-1-yl)biphenyl-4-yl)-2,2,2-trifluoroethoxy)pyrimidin-4-yl)-2,8-diazaspiro[4.5]decane-3-carboxylic acid level at 25 mg/kg, po. The data set is classed as ADME, organism-based. On the set-up: dose 25 mg/kg, time 0 - last, route oral. The note with it: in vivo.

Turning to `CCOC(=O)[C@@H]1CC2(CCN(c3cc(O[C@H](c4ccc(Cl)cc4-c4ccccc4)C(F)(F)F)nc(N)n3)CC2)CN1` [RODATRISTAT ETHYL], the AUClast in the data set with Rattus norvegicus [1] was found to be 5374 ng·h/mL; with Canis familiaris [6] it was 32398 ng·h/mL. Besides, the CL with Rattus norvegicus [2] is on record as > 100%; in the data set on Canis familiaris [7], 46%. For the same compound, the inhibition in vivo at 10 mg/kg in the data set with Mus musculus [3] worked out at 55%. Moreover, the values for the Cmax in the data set on Canis familiaris [4] and in the data set on Rattus norvegicus [5] were 2797 ng/mL and 722 ng/mL, respectively. For the same compound, the t1/2 with Canis familiaris [8] was 7.59 h; in the data set on Canis familiaris [14], 5.05 h. In data set [9], this compound showed a clearance of 106 mL/min/kg. For the same compound, the Vd in data set [10] came to 12.7 L/kg. The Vdss in the data set with Canis familiaris [11] worked out at 2.34 L/kg. Moreover, the Drug metabolism entry in the data set with Mus musculus [12] is on record as “Metabolite_Detected”. Moreover, the inhibition in vivo at 50 mg/kg with Mus musculus [13] stood at 71%. This compound also had a half-life in [15] of 3.18 h.

Regarding `CCOC(=O)C1CC2(CCN(c3cc(O[C@H](c4ccc(Cl)cc4-n4ccc(C)n4)C(F)(F)F)nc(N)n3)CC2)CN1` (stereo partly drawn), the Drug metabolism entry in data set [16], in [17], in data set [18] and in data set [19] was “Metabolite_Detected” in each case.

In the case of `CCOC(=O)[C@@H]1CC2(CCN(c3cc(O[C@H](c4ccc(-c5ccc(C)c(C)c5)cc4-n4ccc(C)n4)C(F)(F)F)nc(N)n3)CC2)CN1`, in the data set with Rattus norvegicus [20], the Cmax worked out at 240 ng/mL. For the same compound, the t1/2 in the data set with Rattus norvegicus [21] is 3.6 h. In the data set on Mus musculus [13], the inhibition in vivo at 50 mg/kg amounted to 70%. In the data set on Rattus norvegicus [22], the AUClast worked out at 1634 ng·h/mL.

The record behind these values is ChEMBL document CHEMBL4000220, “Optimization of spirocyclic proline tryptophan hydroxylase-1 inhibitors” (Bioorg Med Chem Lett, 2017).
